Experimental data reported in patent publication US20250161299A1, “ORAL PCLX-001 IN THE TREATMENT OF HUMAN CANCER” (PACYLEX PHARMACEUTICALS INC., priority 2022, published 2025).
Like-named read-outs stand apart in the source and are kept apart here.

Assay: Phase I trial of oral PCLX-001: plasma pharmacokinetics, noncompartmental analysis (Phoenix WinNonlin 8.3)
Format: in vivo, human
Conditions: human, plasma
From the text: The clinical trial is entitled “Phase I Trial of PCLX-001 in B-cell Non-Hodgkin Lymphoma and Advanced Solid Malignancies” and registered at clinicaltrials.gov as NCT04836195. It is a phase I dose-escalation study of oral PCLX-001, conducted in a multicenter, non-randomized, open-label, non-controlled design. The study is comprised of two parts: Part A (single-agent dose escalation) and Part B (single-agent expansion cohorts).
Patients are to receive daily oral PCLX-001 on 28-day cycles, beginning with a starting dose of 20 mg.
[…] After dosing, the blood samples (volumes 3 mL) were serially collected into heparinized tubes from a right forearm butterfly cannula. All blood fluid specimens were frozen and later assayed using a validated UHPLC-MS detection method.
Noncompartmental pharmacokinetic analysis was performed using Phoenix WinNonlin 8.3 using trapezoidal rule and linear up log down methodology. WinNonlin was allowed to pick optimal terminal phases.
Nonparametric superposition was performed using Phoenix WinNonlin Nonparametric Superposition to predict steady state data based upon Day 1 data for each patient. It utilized the 8- and 24-hour time points for estimation of terminal phase for the purposes of this exercise. We simulated 20 mg daily oral dosing and simulations were conducted out to steady state. Results are show in FIGS. 5, 6, and 7.
In the non-compartmental analysis, Phoenix WinNonlin 8.3 trapezoidal rule was used, with linear up log down method. This allowed WinNonlin to pick optimal terminal phase (WinNonlin will accept Rsq adjusted to >0.7). Additional analysis to assess adequate fie included visual inspection of data, and AUCextrap should be <15%.
Phoenix WinNonlin 8.3 trapezoidal rule. Used linear up log down method. Allowed WinNonlin to pick optimal terminal phase (WinNonlin will accept Rsq adjusted >0.7).
Other analysis to assess adequate fit. Visual inspection of data. AUCextrap should be <15%.

[1] = oral, 140 mg, Table 4, not on Pantoprazole, 140 mg, N 1, Day 1
[2] = oral, 140 mg, Table 5, Mean (CV), on Pantoprazole, 140 mg, N 2, Day 1
[3] = oral, 140 mg, Table 5, Mean (CV), on Pantoprazole, 140 mg, N 2, Day 15
[4] = po, 20 mg, Table 1A, Patient 115-002-001 (Patient 1), Day 1, 20 mg oral daily
[5] = po, 20 mg, Table 1A, Patient 115-002-001 (Patient 1), Day 15, 20 mg oral daily
[6] = po, 20 mg, Table 1A, Patient 115-002-002 (Patient 2), Day 15, 20 mg oral daily
[7] = po, 20 mg, Table 1A, Patient 115-002-004 (Patient 3), Day 1, 20 mg oral daily
[8] = po, 20 mg, Table 1A, Patient 115-002-004 (Patient 3), Day 15, 20 mg oral daily

## Cc1c(NS(=O)(=O)c2c(Cl)cc(-c3ccnc(N4CCNCC4)c3)cc2Cl)c(CC(C)C)nn1C [PCLX-001, 2,6-dichloro-N-(3-isobutyl-1,5-dimethyl-1H-pyrazol-4-yl)-4-(2-(piperazin-1-yl)pyridin-4-yl)benzene sulfonamide]
oral, 70 mg, Table 4, not on Pantoprazole, 70 mg, N 1, Day 15
  Cmax: 629 ng/mL
oral, 70 mg, Table 4, not on Pantoprazole, 70 mg, N 1, Day 15, read-out: AUClast
  AUC(0-t): 7300 ng·h/mL
oral, 70 mg, Table 4, not on Pantoprazole, 70 mg, N 1, Day 15, read-out: Tmax
  Tmax: 4 h
oral, 70 mg, Table 5, Mean (CV), on Pantoprazole, 70 mg, N 2, Day 1
  Cmax: 283 ng/mL
oral, 70 mg, Table 5, Mean (CV), on Pantoprazole, 70 mg, N 2, Day 1, read-out: AUClast
  AUC(0-t): 3260 ng·h/mL
oral, 70 mg, Table 5, Mean (CV), on Pantoprazole, 70 mg, N 2, Day 15
  Cmax: 386 ng/mL
oral, 70 mg, Table 5, Mean (CV), on Pantoprazole, 70 mg, N 2, Day 15, read-out: AUClast
  AUC(0-t): 5760 ng·h/mL
oral, 70 mg, Table 5, median (min, max), on Pantoprazole, 70 mg, N 2, Day 1, read-out: Tmax
  Tmax: 6 h
oral, 70 mg, Table 5, median (min, max), on Pantoprazole, 70 mg, N 2, Day 15, read-out: Tmax
  Tmax: 6 h
oral, 100 mg, Table 4, Mean (CV), not on Pantoprazole, 100 mg, N 2, Day 15
  Cmax: 1340 ng/mL
oral, 100 mg, Table 4, Mean (CV), not on Pantoprazole, 100 mg, N 4, Day 1
  Cmax: 1770 ng/mL
oral, 100 mg, Table 4, Mean, not on Pantoprazole, 100 mg, N 2, Day 15, read-out: AUClast
  AUC(0-t): 17400 ng·h/mL
oral, 100 mg, Table 4, Mean, not on Pantoprazole, 100 mg, N 4, Day 1
  AUC(0-inf): 18000 ng·h/mL
oral, 100 mg, Table 4, Mean, not on Pantoprazole, 100 mg, N 4, Day 1, read-out: AUClast
  AUC(0-t): 15100 ng·h/mL
oral, 100 mg, Table 4, Mean, not on Pantoprazole, 100 mg, N 4, Day 1, read-out: t½ (converted)
  half-life: 7.26 h
oral, 100 mg, Table 4, median (min, max), not on Pantoprazole, 100 mg, N 2, Day 15, read-out: Tmax
  Tmax: 3 h
oral, 100 mg, Table 4, median (min, max), not on Pantoprazole, 100 mg, N 4, Day 1, read-out: Tmax
  Tmax: 2 h
oral, 100 mg, Table 4, not on Pantoprazole, 100 mg, N 2, Day 15, value from N = 1 patient
  AUC(0-inf): 19400 ng·h/mL
oral, 100 mg, Table 4, not on Pantoprazole, 100 mg, N 2, Day 15, value from N = 1 patient, read-out: t½ (converted)
  half-life: 7.56 h
oral, 140 mg, Table 4, Mean (CV), not on Pantoprazole, 140 mg, N 1, Day 15
  Cmax: 903 ng/mL
oral, 140 mg, Table 4, Mean, not on Pantoprazole, 140 mg, N 1, Day 15
  AUC(0-inf): 10700 ng·h/mL
oral, 140 mg, Table 4, Mean, not on Pantoprazole, 140 mg, N 1, Day 15, read-out: AUClast
  AUC(0-t): 7680 ng·h/mL
oral, 140 mg, Table 4, median (min, max), not on Pantoprazole, 140 mg, N 1, Day 15, read-out: Tmax
  Tmax: 1.5 h
[1]
  AUC(0-inf): 24200 ng·h/mL
  Cmax: 2710 ng/mL
oral, 140 mg, Table 4, not on Pantoprazole, 140 mg, N 1, Day 1, read-out: AUClast
  AUC(0-t): 21200 ng·h/mL
oral, 140 mg, Table 4, not on Pantoprazole, 140 mg, N 1, Day 1, read-out: Tmax
  Tmax: 0.5 h
oral, 140 mg, Table 4, not on Pantoprazole, 140 mg, N 1, Day 1, read-out: t½ (converted)
  half-life: 7.91 h
oral, 140 mg, Table 4, not on Pantoprazole, 140 mg, N 1, Day 15, read-out: t½ (converted)
  half-life: 13.8 h
[2]
  AUC(0-inf): 7830 ng·h/mL
  Cmax: 1300 ng/mL
oral, 140 mg, Table 5, Mean (CV), on Pantoprazole, 140 mg, N 2, Day 1, read-out: AUClast
  AUC(0-t): 7260 ng·h/mL
[3]
  AUC(0-inf): 10700 ng·h/mL
  Cmax: 903 ng/mL
oral, 140 mg, Table 5, Mean (CV), on Pantoprazole, 140 mg, N 2, Day 15, read-out: AUClast
  AUC(0-t): 7680 ng·h/mL
oral, 140 mg, Table 5, Mean, on Pantoprazole, 140 mg, N 2, Day 1, read-out: t½ (converted)
  half-life: 6.71 h
oral, 140 mg, Table 5, Mean, on Pantoprazole, 140 mg, N 2, Day 15, read-out: t½ (converted)
  half-life: 13.8 h
oral, 140 mg, Table 5, median (min, max), on Pantoprazole, 140 mg, N 2, Day 1, read-out: Tmax
  Tmax: 1 h
oral, 140 mg, Table 5, median (min, max), on Pantoprazole, 140 mg, N 2, Day 15, read-out: Tmax
  Tmax: 1.5 h
oral, Example 2, all dose groups, Days 1 and 15, read-out: Tmax, median (range)
  Tmax: 2 h
oral, Example 2, range across the dose groups (20 to 140 mg), read-out: t1/2
  half-life: 5.02 to 17.4 h
[4]
  AUC(0-inf): 2030 ng·h/mL
  Cmax: 353 ng/mL
po, 20 mg, Table 1A, Patient 115-002-001 (Patient 1), Day 1, 20 mg oral daily, read-out: AUClast or AUCtau
  AUC(0-t): 1710 ng·h/mL
po, 20 mg, Table 1A, Patient 115-002-001 (Patient 1), Day 1, 20 mg oral daily, read-out: Half-life (converted)
  half-life: 8.54 h
po, 20 mg, Table 1A, Patient 115-002-001 (Patient 1), Day 1, 20 mg oral daily, read-out: Tmax
  Tmax: 1 h
[5]
  AUC(0-inf): 3500 ng·h/mL
  Cmax: 479 ng/mL
po, 20 mg, Table 1A, Patient 115-002-001 (Patient 1), Day 15, 20 mg oral daily, read-out: AUClast or AUCtau
  AUC(0-t): 2730 ng·h/mL
po, 20 mg, Table 1A, Patient 115-002-001 (Patient 1), Day 15, 20 mg oral daily, read-out: Half-life (converted)
  half-life: 10.3 h
po, 20 mg, Table 1A, Patient 115-002-001 (Patient 1), Day 15, 20 mg oral daily, read-out: Tmax
  Tmax: 1 h
po, 20 mg, Table 1A, Patient 115-002-002 (Patient 2), Day 1, 20 mg oral daily
  Cmax: 127 ng/mL
po, 20 mg, Table 1A, Patient 115-002-002 (Patient 2), Day 1, 20 mg oral daily, read-out: AUClast or AUCtau
  AUC(0-t): 1300 ng·h/mL
po, 20 mg, Table 1A, Patient 115-002-002 (Patient 2), Day 1, 20 mg oral daily, read-out: Tmax
  Tmax: 4 h
[6]
  AUC(0-inf): 2520 ng·h/mL
  Cmax: 215 ng/mL
po, 20 mg, Table 1A, Patient 115-002-002 (Patient 2), Day 15, 20 mg oral daily, read-out: AUClast or AUCtau
  AUC(0-t): 2010 ng·h/mL
po, 20 mg, Table 1A, Patient 115-002-002 (Patient 2), Day 15, 20 mg oral daily, read-out: Half-life (converted)
  half-life: ~10 h
po, 20 mg, Table 1A, Patient 115-002-002 (Patient 2), Day 15, 20 mg oral daily, read-out: Tmax
  Tmax: 2 h
[7]
  AUC(0-inf): 1880 ng·h/mL
  Cmax: 304 ng/mL
po, 20 mg, Table 1A, Patient 115-002-004 (Patient 3), Day 1, 20 mg oral daily, read-out: AUClast or AUCtau
  AUC(0-t): 1780 ng·h/mL
po, 20 mg, Table 1A, Patient 115-002-004 (Patient 3), Day 1, 20 mg oral daily, read-out: Half-life (converted)
  half-life: 5.61 h
po, 20 mg, Table 1A, Patient 115-002-004 (Patient 3), Day 1, 20 mg oral daily, read-out: Tmax
  Tmax: 2 h
[8]
  AUC(0-inf): 2150 ng·h/mL
  Cmax: 295 ng/mL
po, 20 mg, Table 1A, Patient 115-002-004 (Patient 3), Day 15, 20 mg oral daily, read-out: AUClast or AUCtau
  AUC(0-t): 1910 ng·h/mL
